Reference: patent US20230295130A1, “COMPOUND USEFUL AS CDK7 KINASE INHIBITOR AND USE THEREOF” (TYK MEDICINES, INC., priority 2020, published 2023)

Experiments:
[1] = system: colorectal cancer cells HCT-116; assay: Cell anti-proliferation experiment, MTT (Table 2); assay type: cell-based; conditions: Homo sapiens, HCT-116, 72 h, incubate 3 days
From the text: (§1) Human breast cancer cells MDA-MB 231, MDA-MB453, ovarian cancer cells OVCAR3 and A2780, colorectal cancer cells HCT-116 and WiDr, and lung cancer cell Calu-6 were purchased from BNCC. DMEM medium (Bio-Channel), DMSO (dimethyl sulfoxide), MTT (thiazole blue), 0.25% EDTA-Tripsin (pancreatin digestive juice), 1×PBS (phosphate buffer, PH7.2), 96-well plate (Corning), fetal bovine serum (FBS), 10,000 U/mL penicillin-G/streptomycin, high-speed freezing centrifuge (EPPENDORF 5810R), enzyme-linked immunosorbent assay (Tecan Spark).
(§2) 1. Cell Plating • A) Tumor cells were cultured to 80-90% density in DMEM (high sugar, containing 10% FBS and 100 U/mL penicillin-G/streptomycin) at 37° C., 5% CO2 and saturated humidity. • B) The culture medium was removed from the 10 cm culture dish. • C) Cells were washed with 10 ml 1×PBS. • D) 4 ml of 0.25% EDTA-Tripsin was added to an incubator to digest pancreatin for 5 minutes at 37° C. and 5% CO2, transferred to a 15 ml centrifuge tube, centrifuged for 5 minutes at 200 g, and supernatant was discarded to obtain cell precipitation. • E) The cell precipitation was resuspended with 4 ml DMEM medium, counted and adjusted to 50,000 cells/ml. • F) Cell suspension was added to a 96-well plate with a volume of 100 μL per well and cultured overnight in a 5% CO2 incubator at 37° C.
(§3) Compound Dilution • A) Preparing the tested compound gradient dilution solution: the tested compounds were prepared into 10 mM and 1 mM storage solution respectively. Firstly, 1 μl and 0.5 μl of 10 mM storage solution were dissolved in 1 ml of DMSO-free culture solution, respectively, to obtain diluted compounds with concentrations of 10 and 5 μM. Then, 1.5 μl of 1 mM storage solution was dissolved in 1.5 ml of DMSO-free culture solution to obtain a dilution compound with a concentration of 1 μM, and then diluted with a 3-fold continuous gradient with […] culture solution for a total of 7 concentrations. The concentrations of all 10 diluted compounds mentioned above were as follows: • 10 μM, 5 μM, 1 μM, 333.33 nM, 111.11 nM, 37.03 nM, 12.35 nM, 4.15 nM, 1.37 nM, 0.46 nM • B) After full mixing, 100 μL of culture compound solution was taken to replace the culture solution in the cell culture plate, with 4 duplicated wells at each concentration; • C) The cells were transferred to incubator to incubate for 3 days.
(§4) 3. MTT Detection • A) The cell culture plate was taken out and added with 5 mg/ml MTT 10 μL in the biosafety cabinet; • B) The cell culture plate was put back into the incubator and continued to incubate for 3 hours; • C) The cell culture plate was taken out to remove the culture solution, 100 μL isopropanol (containing 0.4 mM HCl, 0.1% NP-40) was added, shaking at room temperature for 30 minutes; • D) The absorbance value was measured at 570 nm on TECAN enzyme linked immunosorbent assay.

[2] = system: breast cancer cells MDA-MB 231; assay: Cell anti-proliferation experiment, MTT (Table 2); assay type: cell-based; conditions: Homo sapiens, MDA-MB-231, 72 h, incubate 3 days
From the text: as §1, §2, §3, §4

[3] = system: breast cancer cells MDA-MB453; assay: Cell anti-proliferation experiment, MTT (Table 2); assay type: cell-based; conditions: Homo sapiens, MDA-MB-453, 72 h, incubate 3 days
From the text: as §1, §2, §3, §4

[4] = system: ovarian cancer cells OVCAR3; assay: Cell anti-proliferation experiment, MTT (Table 2); assay type: cell-based; conditions: Homo sapiens, OVCAR-3, 72 h, incubate 3 days
From the text: as §1, §2, §3, §4

lung cancer cell Calu-6 = assay: Cell anti-proliferation experiment, MTT (Table 2); assay type: cell-based; conditions: Homo sapiens, Calu-6, 72 h, incubate 3 days
From the text: as §1, §2, §3, §4

[5] = system: ovarian cancer cells A2780; assay: Cell anti-proliferation experiment, MTT (Table 2); assay type: cell-based, human; conditions: incubate 3 days
From the text: as §1, §2, §3, §4

[6] = system: colorectal cancer cells WiDr; assay: Cell anti-proliferation experiment, MTT (Table 2); assay type: cell-based, human; conditions: incubate 3 days
From the text: as §1, §2, §3, §4

[7] = biological target: CDK7/Cyclin H/MAT1 kinase (Homo sapiens (Human), UniProt P50613); assay: Enzyme activity test, mobility shift assay (Table 1); assay type: biochemical; conditions: 2 mM ATP; pre-incubated 0 and 60 minutes
[8] = biological target: CDK12 (aa686-1082)/Cyclin K (Homo sapiens (Human), UniProt Q9NYV4); assay: as above; assay type: biochemical; conditions: 2 mM ATP; read-out: CDK12 kinase IC50
Method in brief: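 Mobility shift kinase assay on CDK9/Cyclin T1 and CDK12 (aa686-1082)/Cyclin K. Ten-point 3-fold dilution series started from a 0.5 mM intermediate solution in DMSO, with compound–enzyme pre-incubation of 0 or 60 min, in duplicate. Staurosporine served as positive control.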

CDK9/Cyclin Tl = CDK9/Cyclin Tl (Homo sapiens (Human), UniProt P50750); assay: as above; assay type: biochemical; conditions: 2 mM ATP; read-out: CDK9 kinase IC50
Method in brief: (§5)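 Human CDK9/Cyclin T1 and CDK2/Cyclin E1 activity measured by mobility shift assay. Compounds tested as 10-point, 3-fold dilution series starting at 0.5 mM (diluted from 10 mM DMSO stock), in duplicate, with 0 min or 60 min compound–enzyme pre-incubation.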

CDK2/Cyclin El = CDK2/Cyclin El (Homo sapiens (Human), UniProt P24941); assay: as above; assay type: biochemical; conditions: 2 mM ATP; read-out: CDK2 kinase IC50
Method in brief: as §5

Chain of CDK12 (aa686-1082)/Cyclin K (Q9NYV4 686-1082): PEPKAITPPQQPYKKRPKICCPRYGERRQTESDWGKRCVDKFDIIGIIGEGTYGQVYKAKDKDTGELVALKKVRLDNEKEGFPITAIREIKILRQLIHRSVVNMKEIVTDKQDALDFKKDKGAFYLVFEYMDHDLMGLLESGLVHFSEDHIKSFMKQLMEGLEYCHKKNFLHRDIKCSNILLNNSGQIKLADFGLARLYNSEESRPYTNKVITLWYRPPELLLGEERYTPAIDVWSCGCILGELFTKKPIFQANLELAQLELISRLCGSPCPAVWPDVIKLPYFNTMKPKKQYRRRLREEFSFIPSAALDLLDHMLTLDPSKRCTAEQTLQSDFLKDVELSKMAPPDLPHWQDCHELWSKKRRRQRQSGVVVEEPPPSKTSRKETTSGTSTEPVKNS
Chain of CDK12 (aa686-1082)/Cyclin K (O75909 whole entry partner, the tested form may be a part): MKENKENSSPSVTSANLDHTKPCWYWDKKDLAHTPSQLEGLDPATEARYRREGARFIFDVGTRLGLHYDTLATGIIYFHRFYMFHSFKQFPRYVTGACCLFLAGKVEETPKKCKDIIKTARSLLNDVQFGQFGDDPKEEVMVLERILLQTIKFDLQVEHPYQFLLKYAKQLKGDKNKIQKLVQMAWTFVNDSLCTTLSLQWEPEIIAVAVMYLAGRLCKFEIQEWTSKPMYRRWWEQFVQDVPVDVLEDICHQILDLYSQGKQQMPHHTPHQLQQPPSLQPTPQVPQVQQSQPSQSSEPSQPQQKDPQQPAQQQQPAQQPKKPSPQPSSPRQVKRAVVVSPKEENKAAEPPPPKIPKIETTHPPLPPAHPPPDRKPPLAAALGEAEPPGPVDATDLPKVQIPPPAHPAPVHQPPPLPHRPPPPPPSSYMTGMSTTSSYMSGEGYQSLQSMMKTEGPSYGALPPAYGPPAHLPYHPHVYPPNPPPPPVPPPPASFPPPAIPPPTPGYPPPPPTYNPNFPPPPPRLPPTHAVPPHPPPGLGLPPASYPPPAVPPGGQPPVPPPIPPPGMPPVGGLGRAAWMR
Chain of CDK7/Cyclin H/MAT1 kinase (P50613 whole entry, the tested form may be a part): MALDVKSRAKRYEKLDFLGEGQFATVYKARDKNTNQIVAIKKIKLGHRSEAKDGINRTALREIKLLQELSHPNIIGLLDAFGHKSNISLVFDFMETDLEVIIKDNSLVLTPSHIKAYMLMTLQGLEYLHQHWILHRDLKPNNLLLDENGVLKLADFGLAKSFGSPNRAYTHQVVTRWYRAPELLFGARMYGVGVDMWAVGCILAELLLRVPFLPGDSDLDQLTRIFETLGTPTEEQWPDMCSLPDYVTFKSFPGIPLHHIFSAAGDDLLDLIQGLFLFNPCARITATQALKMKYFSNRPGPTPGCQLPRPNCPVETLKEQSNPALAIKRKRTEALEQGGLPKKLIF
Chain of CDK7/Cyclin H/MAT1 kinase (P51946 whole entry partner, the tested form may be a part): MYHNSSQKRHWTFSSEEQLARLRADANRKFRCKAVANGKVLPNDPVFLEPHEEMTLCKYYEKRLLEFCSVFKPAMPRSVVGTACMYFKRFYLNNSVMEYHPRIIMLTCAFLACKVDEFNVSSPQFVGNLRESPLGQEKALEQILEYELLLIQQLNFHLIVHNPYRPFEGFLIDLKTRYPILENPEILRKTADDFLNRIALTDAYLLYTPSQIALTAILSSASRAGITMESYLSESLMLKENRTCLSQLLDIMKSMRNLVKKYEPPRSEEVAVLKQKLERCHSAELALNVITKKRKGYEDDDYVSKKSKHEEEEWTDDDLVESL
Chain of CDK7/Cyclin H/MAT1 kinase (P51948 whole entry partner, the tested form may be a part): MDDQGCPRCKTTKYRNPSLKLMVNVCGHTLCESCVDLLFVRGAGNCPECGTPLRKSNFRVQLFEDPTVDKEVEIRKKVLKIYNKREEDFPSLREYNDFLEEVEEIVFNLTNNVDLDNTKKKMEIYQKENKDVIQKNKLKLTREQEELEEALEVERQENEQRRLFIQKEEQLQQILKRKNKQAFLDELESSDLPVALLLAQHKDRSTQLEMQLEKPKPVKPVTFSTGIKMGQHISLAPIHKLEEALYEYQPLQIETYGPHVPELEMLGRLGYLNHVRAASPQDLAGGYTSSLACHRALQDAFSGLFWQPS
Chain of CDK9/Cyclin Tl (P50750 whole entry): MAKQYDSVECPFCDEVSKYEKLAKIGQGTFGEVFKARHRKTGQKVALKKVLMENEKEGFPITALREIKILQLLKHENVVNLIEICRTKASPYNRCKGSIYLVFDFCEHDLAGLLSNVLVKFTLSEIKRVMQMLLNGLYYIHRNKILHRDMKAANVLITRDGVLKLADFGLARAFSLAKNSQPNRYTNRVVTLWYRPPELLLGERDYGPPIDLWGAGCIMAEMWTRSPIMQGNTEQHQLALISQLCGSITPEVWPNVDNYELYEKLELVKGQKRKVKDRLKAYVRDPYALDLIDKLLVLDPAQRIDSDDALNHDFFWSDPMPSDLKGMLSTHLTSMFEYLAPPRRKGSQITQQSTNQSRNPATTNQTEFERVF
Chain of CDK9/Cyclin Tl (O60563 whole entry partner): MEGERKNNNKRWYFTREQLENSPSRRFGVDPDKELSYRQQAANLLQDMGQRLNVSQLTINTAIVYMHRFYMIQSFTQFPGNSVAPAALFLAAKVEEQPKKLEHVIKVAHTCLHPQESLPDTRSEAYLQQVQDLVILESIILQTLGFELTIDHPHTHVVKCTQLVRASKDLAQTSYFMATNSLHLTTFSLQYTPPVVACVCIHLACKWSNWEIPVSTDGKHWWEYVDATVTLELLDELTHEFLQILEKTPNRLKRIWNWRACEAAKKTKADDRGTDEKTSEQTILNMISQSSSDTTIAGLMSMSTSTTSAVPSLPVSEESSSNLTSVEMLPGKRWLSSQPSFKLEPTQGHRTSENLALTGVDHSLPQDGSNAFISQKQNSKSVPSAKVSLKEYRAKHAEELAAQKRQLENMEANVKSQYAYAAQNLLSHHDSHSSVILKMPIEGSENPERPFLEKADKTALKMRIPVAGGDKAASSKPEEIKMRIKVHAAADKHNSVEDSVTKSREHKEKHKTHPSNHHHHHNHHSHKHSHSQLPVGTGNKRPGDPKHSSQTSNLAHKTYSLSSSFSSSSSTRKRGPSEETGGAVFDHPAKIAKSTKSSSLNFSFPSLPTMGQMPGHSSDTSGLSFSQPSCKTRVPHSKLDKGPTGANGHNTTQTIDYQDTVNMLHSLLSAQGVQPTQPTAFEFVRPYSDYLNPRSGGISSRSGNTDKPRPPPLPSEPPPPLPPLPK

IC50 [1] [nM] | IC50 [2] [nM] | IC50 [3] [nM] | IC50 [4] [nM] | IC50 (lung cancer cell Calu-6) [nM] | IC50 ([5]; Homo sapiens, A2780, 72 h) [nM] | IC50 ([6]; Homo sapiens, WiDr, 72 h) [nM] | IC50 [7] [nM] | IC50 [8] [nM] | IC50 (CDK9/Cyclin Tl) [nM] | IC50 (CDK2/Cyclin El) [nM] | Structure (SMILES) | IC50 [5] [nM] | IC50 [6] [nM]
88.8 | 1660 | 112 | 246 | 207 | 8.76 | 11.2 | – | – | – | – | CC1(C)CC[C@H](Nc2ncc(C(F)(F)F)c(-c3c[nH]c4c(P(C)(C)=O)c(C#N)ccc34)n2)CN1 [Compound 101, reference compound] | – | –
62.5 | 145 | 51.9 | 41.8 | 68.9 | 7.97 | 12.2 | < 50 | > 500 | > 500 | > 500 | COC(=O)Nc1ccc2c(-c3nc(N[C@H]4CCCNC4)ncc3C(F)(F)F)c[nH]c2c1Br [Example T-01] | – | –
– | – | – | – | – | 4.76 | 26.8 | < 50 | > 500 | > 500 | > 500 | COC(=O)Nc1ccc2c(-c3nc(N[C@H]4CCCNC4)ncc3C(F)(F)F)c[nH]c2c1C1CC1 [Example T-17] | – | –
– | 573 | 120 | 215 | – | 8.73 | – | < 50 | > 500 | > 500 | > 500 | COC(=O)Nc1ccc2c(-c3nc(N[C@H]4CCCNC4)ncc3C(F)(F)F)c[nH]c2c1C(F)(F)F [Example T-34] | – | –
– | 471 | 116 | 197 | 209 | – | – | < 50 | > 500 | > 500 | > 500 | COC(=O)Nc1ccc2c(-c3nc(N[C@H]4CCC(C)(C)NC4)ncc3C(F)(F)F)c[nH]c2c1Br [Example T-36] | – | –
47.8 | 52.7 | 10.8 | 25.1 | 40.1 | 7.65 | 13.8 | < 50 | > 500 | > 500 | 50 to 500 | COC(=O)Nc1ccc2c(-c3nc(N[C@H]4CCCNC4)ncc3C(F)(F)F)c[nH]c2c1OC [Example T-37] | – | –
137 | 181 | 77.9 | 98.4 | 110 | 12.3 | 22.2 | < 50 | > 500 | > 500 | > 500 | CCOC(=O)Nc1ccc2c(-c3nc(N[C@H]4CCCNC4)ncc3C(F)(F)F)c[nH]c2c1Br [Example T-42] | – | –
89.2 | 119 | 17.7 | 51.1 | 107 | 16.1 | 28.3 | < 50 | > 500 | > 500 | > 500 | COC(=O)Nc1ccc2c(-c3nc(N[C@H]4CCCNC4)ncc3C(F)(F)F)c[nH]c2c1C [Example T-52] | – | –
55.4 | 75.5 | 23.8 | 38.8 | 57 | 12.5 | 6.35 | < 50 | > 500 | > 500 | > 500 | COCCOC(=O)Nc1ccc2c(-c3nc(N[C@H]4CCCNC4)ncc3C(F)(F)F)c[nH]c2c1Br [Example T-62] | – | –
35.3 | 144 | 53.1 | 69.8 | 114 | 14.2 | 16.3 | < 50 | > 500 | > 500 | > 500 | COC(=O)Nc1ccc2c(-c3nc(N[C@H]4CCCNC4)ncc3C(F)(F)F)c[nH]c2c1Cl [Example T-79] | – | –

Structure (SMILES) | IC50 [1] [nM] | IC50 [2] [nM] | IC50 [3] [nM] | IC50 [4] [nM] | IC50 (lung cancer cell Calu-6) [nM] | IC50 ([5]; Homo sapiens, A2780, 72 h) [nM] | IC50 ([6]; Homo sapiens, WiDr, 72 h) [nM] | IC50 [7] [nM] | IC50 [8] [nM] | IC50 (CDK9/Cyclin Tl) [nM] | IC50 (CDK2/Cyclin El) [nM] | IC50 [5] [nM] | IC50 [6] [nM]
C=C(C)c1c(NC(=O)OC)ccc2c(-c3nc(N[C@H]4CCCNC4)ncc3C(F)(F)F)c[nH]c12 [Example T-70] | – | – | – | – | – | – | – | < 50 | > 500 | > 500 | > 500 | 4.47 | 45.5
